Source: patent publication US20120142645A1, “NEUROACTIVE STEROID COMPOSITIONS AND METHODS OF USE FOR LOWERING CHOLESTEROL” (priority 2009, published 2012)
“Also recorded” adds a separate entry of the source.

How the values were obtained:
Type in all cases: in vivo, human
[1] = tested on: patients with schizophrenia or schizoaffective disorder; assay: MATRICS/MCCB cognitive battery; same 8-week adjunctive pregnenolone trial; settings: for MATRICS/MCCB Composite score: head prints Raw Scores; for MATRICS/MCCB Composite score / MATRICS/MCCB BACS, symbol coding subtest raw score / MATRICS/MCCB Brief Visuospatial Memory Test-Rev. raw score / MATRICS/MCCB Category fluency test, animal naming raw score / MATRICS/MCCB Continuous Performance Test (CPT), Identical Pairs version-Average d′ raw score / MATRICS/MCCB Hopkins Verbal Learning Test raw score / MATRICS/MCCB Letter-Number Span test raw score / MATRICS/MCCB Mayer-Salovey-Caruso Emotional Intelligence Test, managing emotions branch raw score / MATRICS/MCCB Neuropsychological Assessment Battery, mazes subtest raw score / MATRICS/MCCB Trail Making Test, Part A raw score / MATRICS/MCCB Wechsler Memory Scale, 3rd ed., spatial span subtest raw score: mean, n = 9; for MATRICS/MCCB Composite, difference PG vs placebo in T-score change: column head prints Placebo
Description: Study Design and Subjects. Disclosed herein is a placebo-controlled, double-blind, parallel group, randomized trial of adjunctive pregnenolone for the treatment of cognitive and negative symptoms in patients with schizophrenia or schizoaffective disorder. […] Patients received a total of 6 study visits, which took place every two weeks. […] The trial was conducted at a single site, the Durham Veterans Affairs Medical Center in Durham, N.C. The protocol was approved by the local institutional review board and conducted under FDA Investigational New Drug (IND) #71,768. The ClinicalTrials.gov number for this study is NCT00560937.
Cognitive symptoms were assessed by the Brief Assessment of Cognition in Schizophrenia (BAGS; Keefe et al., 2004; Keefe et al., 2008), and the MATRICS Consensus Cognitive Battery (Nuechterlein & Green, 2006; Nuechterlein et al., 2008). It is believed that no clinical trial to date has reported both of these cognitive assessments within the same study. The BAGS and MATRICS batteries were administered two weeks following the screening visit (following the completion of the two-week placebo lead-in phase at Visit 2), and at two 4-week intervals thereafter (at midpoint following randomization at Visit 4 and at the final visit (Visit 6).
The BAGS cognitive battery utilizes the following assessments in the respective targeted domains (Keefe et al., 2004; Keefe et al., 2008): list learning (verbal memory), digit sequencing task (working memory), token motor task (motor speed), verbal fluency (processing speed), symbol coding (attention and processing speed), and the Tower of London test (executive functions/reasoning and problem solving). The MATRICS cognitive battery utilizes the following assessments: Trail Making Test, Part A and the symbol coding subtest of the BAGS (both assess speed of processing), the Hopkins Verbal Learning Test-Revised, immediate recall (three learning trials only) [verbal learning], the Wechsler Memory Scale, 3rd ed., spatial span subtest (working memory, nonverbal), the Letter-Number Span test (working memory, verbal), the Neuropsychological Assessment Battery, mazes subtest (reasoning and problem solving), the Brief Visuospatial Memory Test-Revised (visual learning), the Category Fluency Test (animal naming) [speed of processing], the Mayer-Salovey-Caruso Emotional Intelligence Test, managing emotions branch (social cognition), and the Continuous Performance Test, Identical Pairs version (attention/vigilance) Of note, the symbol coding subtest of the BAGS was administered only once per visit at Visits 2, 4, and 6, although it is a component of both the BAGS and MATRICS cognitive batteries, in order to avoid potentially confounding practice effects.

[2] = tested on: patients with schizophrenia or schizoaffective disorder; assay: Serum analytes and EKG QTc interval at screening and final visit; same trial; settings: for Serum LDL levels post-treatment compared to baseline: paired t-test p=0.002; for EKG QTc interval / Serum Cholesterol / Serum Glucose / Serum Prolactin / Serum TSH / Serum Triglycerides / Serum LDL / Serum HDL: mean ± SD; for Serum LDL: n = 7; for Serum HDL: n = 8
Description: During the screening visit (Visit 1), patients received a physical exam, vital signs, and electrocardiogram (EKG), as well as baseline laboratory measures consisting of serum electrolytes, glucose, creatinine, blood urea nitrogen (chemistry 7 panel), liver function tests, complete blood count (CBC), urinalysis, urine toxicology test, thyroid stimulating hormone (TSH), and prolactin, and serum pregnancy test if female. These tests were also repeated at the completion of the study (Visit 6). In addition, patients received an interim EKG 4 weeks post-randomization, as well as a serum pregnancy test if female (Visit 4). Patients also received a chemistry 7 panel, CBC, and liver function tests at Visits 2, 3, 4, and 5 (i.e., at all study visits). Psychiatric symptoms were assessed at baseline using the Scale for the Assessment of Negative Symptoms (Andreasen, 1983), the Positive and Negative Symptom Scale (PANSS; Kay et al., 1987), the Calgary Depression Rating Scale (CDRS; Addington et al., 1990), the Clinical Global Impressions Improvement (CGI-I) and Severity (CGI-S) scales, the Barnes Akathisia Scale (BAS; Barnes, 1989), the Simpson Angus Scale for Extrapyramidal Symptoms (SAS; Simpson & Angus, 1970), the Quality of Life Scale (QOL; Heinrichs et al., 1984), and the Hillside Side Effects Scale. One research nurse with five years of experience in the conduction of schizophrenia clinical trials completed both psychiatric and cognitive assessments throughout the study, and was trained to one point of divergence on each PANSS item.

[3] = tested on: subjects with mild traumatic brain injury (TBI); assay: Total cholesterol in mild TBI subjects, pregnenolone 8 weeks (100, 300, then 500 mg/day oral) versus placebo; settings: baseline to study completion (8 weeks), t-test of change scores p=0.035, FIG. 3
Description: Ten (10) additional subjects with mild TBI were given a placebo.

[4] = Week 0 to Week 8, listed as pregnenolone

CC(=O)[C@H]1CC[C@H]2[C@@H]3CC=C4C[C@@H](O)CC[C@]4(C)[C@H]3CC[C@]12C [PG, pregnenolone]
MATRICS/MCCB Composite score ([1]; Week 0 (baseline)): 29.00 | MATRICS/MCCB BACS, symbol coding subtest raw score ([1]; Week 0 (baseline)): 36.89 | MATRICS/MCCB Brief Visuospatial Memory Test-Rev. raw score ([1]; Week 0 (baseline)): 20.22 | MATRICS/MCCB Category fluency test, animal naming raw score ([1]; Week 0 (baseline)): 18.33 | MATRICS/MCCB Continuous Performance Test (CPT), Identical Pairs version-Average d′ raw score ([1]; Week 0 (baseline)): 1.42 | MATRICS/MCCB Hopkins Verbal Learning Test raw score ([1]; Week 0 (baseline)): 18.56 | MATRICS/MCCB Letter-Number Span test raw score ([1]; Week 0 (baseline)): 11.44 | MATRICS/MCCB Mayer-Salovey-Caruso Emotional Intelligence Test, managing emotions branch raw score ([1]; Week 0 (baseline)): 86.89 | MATRICS/MCCB Neuropsychological Assessment Battery, mazes subtest raw score ([1]; Week 0 (baseline)): 13.56 | MATRICS/MCCB Trail Making Test, Part A raw score ([1]; Week 0 (baseline)): 42.11 | MATRICS/MCCB Wechsler Memory Scale, 3rd ed., spatial span subtest raw score ([1]; Week 0 (baseline)): 13.11 | MATRICS/MCCB Attention/vigilance domain, change in T-score ([1]; Week 0 to Week 8): 7.56 | MATRICS/MCCB Attention/vigilance domain, difference PG vs placebo in T-score change ([1]; Week 0 to Week 8): 6.89 | MATRICS/MCCB Composite, change in T-score ([1]; Week 0 to Week 8): 7.00 | MATRICS/MCCB Reasoning and Problem Solving domain, change in T-score ([1]; Week 0 to Week 8): 6.22 | MATRICS/MCCB Reasoning and Problem Solving domain, difference PG vs placebo in T-score change ([1]; Week 0 to Week 8): 0.00 | MATRICS/MCCB Social cognition domain, change in T-score ([1]; Week 0 to Week 8): −0.89 | MATRICS/MCCB Social cognition domain, difference PG vs placebo in T-score change ([1]; Week 0 to Week 8): −9.22 | MATRICS/MCCB Speed of Processing domain, change in T-score ([1]; Week 0 to Week 8): 5.44 | MATRICS/MCCB Speed of Processing domain, difference PG vs placebo in T-score change ([1]; Week 0 to Week 8): 0.78 | MATRICS/MCCB Verbal learning domain, change in T-score ([1]; Week 0 to Week 8): 3.44 | MATRICS/MCCB Verbal learning domain, difference PG vs placebo in T-score change ([1]; Week 0 to Week 8): 2.67 | MATRICS/MCCB Visual learning domain, change in T-score ([1]; Week 0 to Week 8): 3.78 | MATRICS/MCCB Visual learning domain, difference PG vs placebo in T-score change ([1]; Week 0 to Week 8): −3.78 | MATRICS/MCCB Working memory domain, change in T-score ([1]; Week 0 to Week 8): 5.11 | MATRICS/MCCB Working memory domain, difference PG vs placebo in T-score change ([1]; Week 0 to Week 8): 4.00 | MATRICS/MCCB Composite, difference PG vs placebo in T-score change ([1]; Week 0 to Week 8): 0.00 | MATRICS/MCCB Composite, difference PG vs placebo in T-score change [1, 4]: no difference | MATRICS/MCCB Composite, change in T-score [1, 4]: 7.00±8.87 | MATRICS/MCCB Composite score ([1]; Week 4): 33.78 | MATRICS/MCCB BACS, symbol coding subtest raw score ([1]; Week 4): 44.78 | MATRICS/MCCB Brief Visuospatial Memory Test-Rev. raw score ([1]; Week 4): 21.33 | MATRICS/MCCB Category fluency test, animal naming raw score ([1]; Week 4): 18.44 | MATRICS/MCCB Continuous Performance Test (CPT), Identical Pairs version-Average d′ raw score ([1]; Week 4): 1.37 | MATRICS/MCCB Hopkins Verbal Learning Test raw score ([1]; Week 4): 20.89 | MATRICS/MCCB Letter-Number Span test raw score ([1]; Week 4): 12.67 | MATRICS/MCCB Mayer-Salovey-Caruso Emotional Intelligence Test, managing emotions branch raw score ([1]; Week 4): 90.60 | MATRICS/MCCB Neuropsychological Assessment Battery, mazes subtest raw score ([1]; Week 4): 15.67 | MATRICS/MCCB Trail Making Test, Part A raw score ([1]; Week 4): 38.33 | MATRICS/MCCB Wechsler Memory Scale, 3rd ed., spatial span subtest raw score ([1]; Week 4): 14.33 | MATRICS/MCCB Composite score ([1]; Week 8): 36.00 | MATRICS/MCCB BACS, symbol coding subtest raw score ([1]; Week 8): 38.67 | MATRICS/MCCB Brief Visuospatial Memory Test-Rev. raw score ([1]; Week 8): 22.33 | MATRICS/MCCB Category fluency test, animal naming raw score ([1]; Week 8): 20.44 | MATRICS/MCCB Continuous Performance Test (CPT), Identical Pairs version-Average d′ raw score ([1]; Week 8): 1.91 | MATRICS/MCCB Hopkins Verbal Learning Test raw score ([1]; Week 8): 21.00 | MATRICS/MCCB Letter-Number Span test raw score ([1]; Week 8): 13.11 | MATRICS/MCCB Mayer-Salovey-Caruso Emotional Intelligence Test, managing emotions branch raw score ([1]; Week 8): 86.10 | MATRICS/MCCB Neuropsychological Assessment Battery, mazes subtest raw score ([1]; Week 8): 17.33 | MATRICS/MCCB Trail Making Test, Part A raw score ([1]; Week 8): 34.33/ | MATRICS/MCCB Wechsler Memory Scale, 3rd ed., spatial span subtest raw score ([1]; Week 8): 14.22 | EKG QTc interval following treatment ([2]; 8 weeks of pregnenolone): no change | Laboratory parameters including glucose, triglycerides, HDL, TSH, and prolactin, post-treatment compared to baseline ([2]; 8 weeks of pregnenolone): no significant changes | Serum LDL levels post-treatment compared to baseline ([2]; 8 weeks of pregnenolone, listed as Pregnenolone): significantly decreased | Serum LDL levels post-treatment compared to baseline ([2]; 8 weeks of pregnenolone, listed as pregnenolone): significantly reduced; also recorded: significantly decreased | Cholesterol levels following treatment compared to baseline ([2]; 8 weeks of pregnenolone, paired t-test p=0.008): significantly decreased | EKG QTc interval ([2]; Screening): 414.8 ± 19.2 ms | Serum Cholesterol ([2]; Screening): 185.8 ± 43.3 mg/100 ml | Serum Glucose ([2]; Screening): 117.9 ± 36.2 mg/100 ml | Serum Prolactin ([2]; Screening): 7.69 ± 5.91 ng/mL | Serum TSH ([2]; Screening): 1.45 ± 0.64 μIU/ml | Serum Triglycerides ([2]; Screening): 194.3 ± 87.8 mg/100 ml | Serum LDL ([2]; Screening): 119.1 ± 26.0 mg/100 ml | Serum HDL ([2]; Screening): 39.3 ± 16.5 mg/100 ml | EKG QTc interval ([2]; Week 8): 406.8 ± 20.9 ms | Serum Glucose ([2]; Week 8): 119.0 ± 33.5 mg/100 ml | Serum Prolactin ([2]; Week 8): 7.85 ± 6.47 ng/mL | Serum TSH ([2]; Week 8): 1.26 ± 0.72 μIU/ml | Serum Triglycerides ([2]; Week 8): 237.6 ± 119.5 mg/100 ml | Serum LDL ([2]; Week 8, p 0.002 vs screening): 90.9 ± 29.4 mg/100 ml | Serum HDL ([2]; Week 8): 37.0 ± 17.4 mg/100 ml | Serum Cholesterol ([2]; Week 8, p 0.008 vs screening): 166.6 ± 36.2 mg/100 ml | Glucose levels, serum electrolyte panels, thyroid stimulating hormone, prolactin levels, and liver function tests ([2]; during the 8-week trial): unchanged | Total cholesterol (percent change) compared to placebo [3]: statistically significant reduction | Total cholesterol (percent change) compared to placebo ([3]; listed as pregnenolone): reduced
